# Data: ChEMBL document CHEMBL4819037, “Phytochemical Profiling and Biological Activity of the Australian Carnivorous Plant, Drosera magna” (J Nat Prod, 2021)
# Active and inactive are the calls of the source. No cut-off for these calls is given here.
# Assays:
# Cryptococcus neoformans [1] = test: Antimicrobial activity against Cryptococcus neoformans var. grubii ATCC 208821 assessed as inhibition of fungal growth at 8 ug/ml incubated for 24 hrs by resazurin dye based assay; format: functional; set-up: scale not given: the % may be the effect or the level left; details: dose 8 µg/ml
# Staphylococcus aureus [2] = test: Antimicrobial activity against methicillin-resistant Staphylococcus aureus ATCC 43300 assessed as inhibition of bacterial growth at < 0.2 ug/ml incubated for 18 hrs by resazurin dye based assay; format: functional; set-up: scale not given: the % may be the effect or the level left; details: dose microg/ml <0.2
# HEK293 = test: Cytotoxicity against human HEK293 cells at 32 ug/ml; format: cell-based
# Candida albicans [3] = test: Antimicrobial activity against Candida albicans ATCC 90028 assessed as inhibition of fungal growth at 32 ug/ml incubated for 24 hrs by resazurin dye based assay; format: functional, organism-based; details: dose 32.0 µg/ml
# Pseudomonas aeruginosa = test: Antimicrobial activity against Pseudomonas aeruginosa ATCC 27853 assessed as inhibition of bacterial growth at 32 ug/ml incubated for 18 hrs by resazurin dye based assay; format: functional, organism-based; details: dose 32.0 µg/ml
# Staphylococcus aureus [4] = test: Antimicrobial activity against methicillin-resistant Staphylococcus aureus ATCC 43300 assessed as inhibition of bacterial growth at 32 ug/ml incubated for 18 hrs by resazurin dye based assay; format: functional, organism-based; details: dose 32.0 µg/ml
# Acinetobacter baumannii = test: Antimicrobial activity against Acinetobacter baumannii ATCC 19606 assessed as inhibition of bacterial growth at 32 ug/ml incubated for 18 hrs by resazurin dye based assay; format: functional, organism-based; details: ATCC 19606 = CIP 70.34 = JCM 6841, dose 32.0 µg/ml
# Klebsiella pneumoniae = test: Antimicrobial activity against Klebsiella pneumoniae ATCC 700603 assessed as inhibition of bacterial growth at 32 ug/ml incubated for 18 hrs by resazurin dye based assay; format: functional, organism-based; details: dose 32.0 µg/ml
# Cryptococcus neoformans [5] = test: Antimicrobial activity against Cryptococcus neoformans var. grubii ATCC 208821 assessed as inhibition of fungal growth at 32 ug/ml incubated for 24 hrs by resazurin dye based assay; format: functional; details: dose 32.0 µg/ml
# [6] = Hemolytic activity against RBC (unknown origin) at 32 ug/ml; format: ADME, cell-based, Erythrocyte; details: red blood cells (erythrocytes), at 32 µg/mL, read-out: Activity
# Escherichia coli = test: Antimicrobial activity against Escherichia coli ATCC 25922 assessed as inhibition of bacterial growth at 32 ug/ml incubated for 18 hrs by resazurin dye based assay; format: functional, organism-based; details: dose 32.0 µg/ml
# Haemonchus contortus [7] = test: Anti-helmintic activity against fourth stage L4 Haemonchus contortus larvae assessed as inhibition of larvae motility at 100 uM after 72 hrs; format: functional; set-up: scale not given: the % may be the effect or the level left
# Haemonchus contortus [8] = test: Anti-helmintic activity against fourth stage L4 Haemonchus contortus larvae assessed as induction of abnormal morphological phenotype at >= 50 uM after 7 days; format: functional, organism-based; details: dose microM >=50, time 7.0 day
# Haemonchus contortus [9] = test: Anti-helmintic activity against third-stage xL3 Haemonchus contortus larvae assessed as inhibition of larvae motility at 100 uM measured after 72 hrs; format: functional, organism-based
# Cryptococcus neoformans [10] = test: Antimicrobial activity against Cryptococcus neoformans var. grubii ATCC 208821 assessed as inhibition of fungal growth at 4 ug/ml incubated for 24 hrs by resazurin dye based assay; format: functional; set-up: scale not given: the % may be the effect or the level left; details: dose 4 µg/ml
# Candida albicans [11] = test: Antimicrobial activity against Candida albicans ATCC 90028 assessed as inhibition of fungal growth at 8 ug/ml incubated for 24 hrs by resazurin dye based assay; format: functional; set-up: scale not given: the % may be the effect or the level left; details: dose 8 µg/ml
compound,measurement,setting,value
CC1=CC(=O)c2c(O)cccc2C1=O [PLUMBAGIN],Activity,Cryptococcus neoformans [1],100%
same,Activity,Staphylococcus aureus [2],96%
same,Activity,HEK293; at 32 µg/mL,92%
O=c1c(O[C@@H]2O[C@H](CO)[C@@H](O)[C@H](O)[C@H]2O)c(-c2ccc(O)c(O)c2)oc2cc(O)cc(O)c12 [ISOQUERCETIN],Activity,Candida albicans [3],inactive
same,Activity,Pseudomonas aeruginosa,Active
same,Activity,Staphylococcus aureus [4],Active
same,Activity,Acinetobacter baumannii,Active
same,Activity,Klebsiella pneumoniae,Active
same,Activity,Cryptococcus neoformans [5],Active
same,hemolysis at 32 ug/ml,[6],> 10%
same,Activity,Escherichia coli,Active
CC1=C(O)C(=O)c2c(O)ccc(O)c2C1=O,Activity,Haemonchus contortus [7],27%
same,Activity,Haemonchus contortus [8],Active
same,Activity,Haemonchus contortus [9],inactive
same,Activity,Cryptococcus neoformans [10],100%
same,Activity,Candida albicans [11],98%
same,Activity,HEK293; dose 32 µg/ml,Non-Toxic
CC1=C(O)C(=O)c2c(OC3OC(CO)C(O)C(O)C3O)ccc(O)c2C1=O (configuration not stated),Activity,Candida albicans [3],Active
COc1ccc(-c2oc3cc(OC4OC(C)C(O)C(O)C4O)cc(O)c3c(=O)c2OC2OC(C)C(O)C(O)C2O)cc1O (configuration not stated),Activity,Haemonchus contortus [9],inactive
O=C1CC(c2ccc(O)cc2)Oc2cc(O)c([C@@H]3O[C@H](CO)[C@@H](O)[C@H](O)[C@H]3O)c(O)c21 (some centres not stated),Activity,Candida albicans [3],Active
same,Activity,Pseudomonas aeruginosa,Active
same,Activity,Staphylococcus aureus [4],Active
same,Activity,Acinetobacter baumannii,Active
same,Activity,Klebsiella pneumoniae,Active
same,Activity,Cryptococcus neoformans [5],Active
same,Activity,Escherichia coli,Active
COc1ccc(-c2oc3cc(OC4OC(C)C(O)C(OC(C)=O)C4O)cc(O)c3c(=O)c2OC2OC(C)C(O)C(O)C2O)cc1O (configuration not stated),Activity,Haemonchus contortus [9],inactive
